# Experimental data reported in publication PMC6478909 (Scientific Reports, 2019).
# Like-named read-outs stand apart in the source and are kept apart here.
# Columns and labels:
# [1] = target: T1, precorrin-4 C(11)-methyltransferase (CobM), Cp-CobM (Corynebacterium pseudotuberculosis, UniProt D9QAC4); assay: biochemical; format: binding
# [2] = target: T1, precorrin-4 C(11)-methyltransferase (CobM), Cp-CobM; assay: biochemical; format: binding; remark: listed apart in the source
# T1 sequence (D9QAC4 1-257): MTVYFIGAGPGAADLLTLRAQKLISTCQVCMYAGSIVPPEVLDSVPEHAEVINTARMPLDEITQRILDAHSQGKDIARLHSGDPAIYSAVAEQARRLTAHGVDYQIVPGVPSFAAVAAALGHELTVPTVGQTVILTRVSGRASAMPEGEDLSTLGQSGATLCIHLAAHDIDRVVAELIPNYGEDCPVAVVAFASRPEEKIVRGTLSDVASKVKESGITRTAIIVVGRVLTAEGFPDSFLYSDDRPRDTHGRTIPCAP
Compound,Kd [1] [µM],Kd [2] [µM]
C[S+](CC[C@H](N)C(=O)[O-])C[C@H]1O[C@@H](n2cnc3c(N)ncnc32)[C@H](O)[C@@H]1O (stereo partly shown) [SAM],1.4 ± 0.7,
Nc1ncnc2nc[nH]c12 [adenine],,17.8 ± 1.5
Nc1ncnc2c1ncn2[C@H]1C[C@H](O)[C@@H](COP(=O)(O)OP(=O)(O)OP(=O)(O)O)O1 [dATP],,15.8 ± 2
Cc1ccc(C(=O)Nc2ccc(S(=O)(=O)O)c3cc(S(=O)(=O)O)cc(S(=O)(=O)O)c23)cc1NC(=O)c1cccc(NC(=O)Nc2cccc(C(=O)Nc3cc(C(=O)Nc4ccc(S(=O)(=O)O)c5cc(S(=O)(=O)O)cc(S(=O)(=O)O)c45)ccc3C)c2)c1 [suramin],6.3 ± 1.1,
